Measured values published in EPA's ToxValDB 9.5 (doi:10.2903/j.efsa.2017.4989).
In brackets after ≈: the same amount, converted by molar mass.

Tests used:
Folsomia candida = conditions: chronic/long-term; mortality
Hypoaspis aculeifer = conditions: chronic/long-term; mortality
Oncorhynchus mykiss = conditions: for LC50: acute, duration: 96 hours, mortality
Tagia sp. = conditions: chronic/long-term; growth
Anas platyrhynchos = conditions: acute; oral; unspecified; mortality
Apis mellifera = conditions: acute, duration: 48 hours, mortality
Daphnia magna = conditions: chronic/long-term; duration: 21 days; reproduction
Oryctolagus sp. = conditions: developmental; development

| Compound | NOEC (Folsomia candida) [mg/kg] | NOEC (Hypoaspis aculeifer) [mg/kg] | LC50 (Oncorhynchus mykiss) [mg/L] | LD50 (Rattus norvegicus; acute, oral, mortality) [mg/kg-day] | NOAEL (Rattus norvegicus; short-term, duration: 28 days, clinical chemistry) [mg/kg-day] | NOEC (Tagia sp.) [mg/kg] | NOAEL (Rattus norvegicus; short-term, duration: 28 days) [mg/kg-day] | LD50 (Anas platyrhynchos) [mg/kg-day] | LD50 (Apis mellifera; dermal) [µg/piece] | LD50 (Apis mellifera; oral, unspecified) [µg/piece] | LD50 (Colinus virginianus; acute, oral, mortality) [mg/kg-day] | NOEL (Colinus virginianus; chronic) [mg/kg-day] | NOEC (Daphnia magna) [mg/L] | NOEC (Oncorhynchus mykiss; chronic/long-term, duration: 95 days, other) [mg/L] | NOAEL (Oryctolagus sp.) [mg/kg-day] | LC50 (Rattus norvegicus; acute, oral, mortality) [mg/kg-day] | NOAEL (Rattus norvegicus; chronic, body weight) [mg/kg-day] | NOAEL (Rattus norvegicus; reproduction developmental, body weight) [mg/kg-day] |
| --- | --- | --- | --- | --- | --- | --- | --- | --- | --- | --- | --- | --- | --- | --- | --- | --- | --- | --- |
| CO/N=C(/C(=O)O)c1ccccc1CO/N=C(\C(=O)O)c1cccc(C(F)(F)F)c1 | 10 | 100 | > 100 | > 2000 | 150 | 100 | – | – | – | – | – | – | – | – | – | – | – | – |
| CO/N=C(/C(=O)O)c1ccccc1CO/N=C(/C(=O)O)c1cccc(C(F)(F)F)c1 | 100 | – | > 100 | > 2000 | – | 100 | > 1000 | – | – | – | – | – | – | – | – | – | – | – |
| CO/N=C(/C(=O)OC)c1ccccc1CO/N=C(\C)c1cccc(C(F)(F)F)c1 [Trifloxystrobin] | 249 | 249 | 0.015 (≈ 0.0367 µM) | – | – | 3.5 | – | > 2250 | > 100 | > 110 | > 2000 | 31 | 0.00276 | 0.0043 | 50 | > 5000 | 10 | 10 |
